This passage reports IC50 results from US9409914B2, “Triazolo[4,5-d]pyrimidine derivatives” (Merck Patent GmbH, priority 2012, dated 2016).

The target of assay [1] is T1, GCN2 (Homo sapiens, UniProt Q9P2K8). Nature of the assay: Cellular assay for GCN2 activity (phospho-eIF2alpha immunocytochemistry, tryptophanol-stimulated U2OS cells). Conditions: 2 hours compound, then 600 μM tryptophanol 30 minutes, anti-phospho-eIF2alpha, read-out: IC50 GCN2 (cell assay). Set-up: endogenous in cells; host or cells: U2OS. In kind it is cell-based. On the procedure: Cellular Assay for the Determination of Compound Activities
Human U2OS cells (2000 cells/well) are seeded into 384-well plates and incubated for 20 hours.
The next day, the cells are treated with the test compounds and incubated for 2 hours. Then, tryptophanol, at a final concentration of 600 μM, is added to the cells and those are incubated for 30 minutes.
The analysis of cellular GCN2 activities is done by immunocytochemistry. Briefly, cells are fixated on the well surfaces by formaldehyde and permeabilised with Triton X-100. The primary antibody (anti-phospho-eIF2alpha (Ser51, Cell Signalling Technology, #3398) is incubated on the treated cells for 20 hours, followed by a 60 minutes incubation of the secondary antibody (anti-rabbit-IgG-Alexa 488; Molecular Probes #11008). The analysis and quantification of phosphorylated GCN2 is done by scanning the plates in the Acumen Explorer system (TTPLabtech). The obtained data are normalised against the untreated control wells (DMSO only) and expressed as % effect values. The determination of IC50 values is done by using the Graph Pad Prism software.
Target sequence in this assay (Q9P2K8 whole entry): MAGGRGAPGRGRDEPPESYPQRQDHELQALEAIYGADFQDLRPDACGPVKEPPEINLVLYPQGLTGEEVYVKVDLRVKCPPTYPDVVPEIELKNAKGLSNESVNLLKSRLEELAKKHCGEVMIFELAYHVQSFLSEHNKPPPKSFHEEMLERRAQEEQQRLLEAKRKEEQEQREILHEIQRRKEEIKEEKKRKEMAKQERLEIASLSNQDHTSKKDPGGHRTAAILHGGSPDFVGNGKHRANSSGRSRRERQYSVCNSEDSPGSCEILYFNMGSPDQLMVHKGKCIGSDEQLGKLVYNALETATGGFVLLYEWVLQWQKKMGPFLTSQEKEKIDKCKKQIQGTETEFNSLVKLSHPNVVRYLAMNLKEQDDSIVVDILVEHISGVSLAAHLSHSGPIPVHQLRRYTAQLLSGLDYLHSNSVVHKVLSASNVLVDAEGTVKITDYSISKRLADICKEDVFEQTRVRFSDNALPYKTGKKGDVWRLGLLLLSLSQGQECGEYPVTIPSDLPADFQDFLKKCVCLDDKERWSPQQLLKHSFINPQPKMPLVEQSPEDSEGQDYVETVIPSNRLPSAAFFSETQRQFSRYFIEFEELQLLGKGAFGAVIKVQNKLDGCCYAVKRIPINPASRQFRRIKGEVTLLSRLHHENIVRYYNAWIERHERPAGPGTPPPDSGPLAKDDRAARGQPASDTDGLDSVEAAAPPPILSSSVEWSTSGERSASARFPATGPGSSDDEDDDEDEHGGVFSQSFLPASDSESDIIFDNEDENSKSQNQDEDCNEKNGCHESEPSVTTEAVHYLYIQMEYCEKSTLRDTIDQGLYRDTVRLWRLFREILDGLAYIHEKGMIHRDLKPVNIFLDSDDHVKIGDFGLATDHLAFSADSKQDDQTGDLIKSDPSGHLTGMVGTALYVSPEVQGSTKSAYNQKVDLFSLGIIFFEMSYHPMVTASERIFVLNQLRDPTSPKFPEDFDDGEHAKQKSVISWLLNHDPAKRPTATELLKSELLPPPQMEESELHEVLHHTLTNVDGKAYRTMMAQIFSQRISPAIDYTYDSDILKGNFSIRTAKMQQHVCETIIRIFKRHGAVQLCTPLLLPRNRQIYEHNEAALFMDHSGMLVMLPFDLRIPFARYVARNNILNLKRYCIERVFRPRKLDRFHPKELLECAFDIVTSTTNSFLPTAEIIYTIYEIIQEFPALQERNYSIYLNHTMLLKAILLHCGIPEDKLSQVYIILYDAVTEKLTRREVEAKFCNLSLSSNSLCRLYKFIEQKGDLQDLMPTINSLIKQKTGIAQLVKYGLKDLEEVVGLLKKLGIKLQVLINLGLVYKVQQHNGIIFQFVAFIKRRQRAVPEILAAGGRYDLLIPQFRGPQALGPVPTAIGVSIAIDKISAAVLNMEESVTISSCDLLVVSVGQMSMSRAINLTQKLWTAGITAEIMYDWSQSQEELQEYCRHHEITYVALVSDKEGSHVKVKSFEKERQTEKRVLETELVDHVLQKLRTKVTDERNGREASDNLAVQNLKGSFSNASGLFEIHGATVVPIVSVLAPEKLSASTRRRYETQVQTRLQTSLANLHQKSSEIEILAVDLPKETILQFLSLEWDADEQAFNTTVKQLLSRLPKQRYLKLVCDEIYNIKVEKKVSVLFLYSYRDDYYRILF

For assay [2], the target named is T1, GCN2. Nature of the assay: GCN2 enzyme assay (TR-FRET Lanthascreen, phosphorylation of GFP-eIF2alpha). In kind it is biochemical. As to conditions: 10 μM ATP, 80 nM GFP-eIF2alpha, 30 nM GCN2, room temperature. From the text:
GCN2: Assay principle & conditions
This assay can quantificate the activity of the serin kinase GCN2 (general control non-derepressible-2).
This kinase is involved in the stress metabolism of cells. It is activated upon starvation (amino acid depletion). Its natural substrate is eIF2a (eukaryotic initiation factor 2 alpha subunit), a translation factor, which gets activated (phosphorylated) by GCN2 in case of an amino acid bottleneck in the cells. This in turn leads to a halt of the protein synthesis. Inhibition of GCN2 results in stopping this mechanism: The cell can not stop protein production upon “starvation” stress.
The assay is run in two steps: the enzymatic reaction and the detection step. In the first step GCN2 is incubated with 10 μM ATP and 80 nM of the GFP-labelled substrate eIF2alpha at room temperature.
The enzymatic reaction is stopped by addition of EDTA. The amount of phosphorylated eIF2alpha is determined by TR-FRET (Lanthascreen): A complex is formed consisting of antibody and GFP labelled phospho-eIF2a, which allows a FRET upon exitation at 340 nm.
The GCN2-activity is directly proportional to the ratio of fluorescence units at the emission wavelengthh 520 nm (phosphopeptide-sensitive wavelength=emission of GFP) to the units at 495 nm (reference wavelength=emission of Terbium-chelate).
Final Concentrations in the Enzymatic Reaction
Target sequence in this assay (Q9P2K8 whole entry, species assumed): as the sequence (Q9P2K8 whole entry) above
For orientation: In TR-FRET formats the signal depends on donor and acceptor labels being close together.

Molecules are shown by their SMILES. A value given as a limit tells only on which side of the number the result lay.

The IC50 is the concentration needed to halve the response being measured. Take `CCOc1ccc(-n2nnc3cnc(Nc4cnn(CCC5CCNCC5)c4)nc32)cc1` [Compound A97, [3-(4-ethoxy-phenyl)-3H-[1,2,3]triazolo[4,5-d]pyrimidin-5-yl]-[1-(2-piperidin-4-yl-ethyl)-1H-pyrazol-4-yl]-amine]: the IC50 on GCN2 [1] is 0.3 to 3 µM; on GCN2 [2], less than 300 nM. Take `COc1ccc(-n2nnc3cnc(Nc4cnn(C5CCN(C)CC5)c4)nc32)cc1` [Compound A8, [3-(4-methoxy-phenyl)-3H-[1,2,3]triazolo[4,5-d]pyrimidin-5-yl]-[1-(1-methyl-piperidin-4-yl)-1H-pyrazol-4-yl]-amine]: the figures for the IC50 on GCN2 [1] and against GCN2 [2] were 0.3 to 3 µM and less than 300 nM, respectively. Regarding `CCn1cc(Nc2ncc3nnn(-c4ccc5ncccc5c4)c3n2)cn1` [Compound A71, (1-ethyl-1H-pyrazol-4-yl)-(3-quinolin-6-yl-3H-[1,2,3]triazolo[4,5-d]pyrimidin-5-yl)-amine], the figures for the IC50 on GCN2 [1] and at GCN2 [2] were 0.3 to 3 µM and less than 300 nM, respectively. For the molecule `CCn1cc(Nc2ncc3nnn(-c4ccc(C(N)=O)cc4)c3n2)cn1` [Compound A70, 4-[5-(1-ethyl-1H-pyrazol-4-ylamino)-[1,2,3]triazolo[4,5-d]pyrimidin-3-yl]-benzamide], the IC50 was 3 to 50 µM on GCN2 [1] and less than 300 nM at GCN2 [2]. The matching figures for `CCn1cc(Nc2ncc3nnn(-c4ccc(C(C)(C)O)cc4)c3n2)cn1` [Compound A121, 2-{4-[5-(1-ethyl-1H-pyrazol-4-ylamino)-[1,2,3]triazolo[4,5-d]pyrimidin-3-yl]-phenyl}-propan-2-ol]: 0.3 to 3 µM and less than 300 nM.

As to `COc1ccc(-n2nnc3cnc(Nc4cnn(CCn5cccn5)c4)nc32)nc1` [Compound A124, [3-(5-methoxy-pyridin-2-yl)-3H-[1,2,3]triazolo[4,5-d]pyrimidin-5-yl]-[1-(2-pyrazol-1-yl-ethyl)-1H-pyrazol-4-yl]-amine], the IC50 on GCN2 [1] was 3 to 50 µM; at GCN2 [2] it was less than 300 nM. For the molecule `CCn1cc(-n2nnc3cnc(Nc4cnn(C5CCOCC5)c4)nc32)cn1` [Compound A83, [3-(1-ethyl-1H-pyrazol-4-yl)-3H-[1,2,3]triazolo[4.5-d]pyrimidin-5-yl]-[1-(tetrahydro-pyran-4-yl)-1H-pyrazol-4-yl]-amine], the IC50 on GCN2 [1] was 3 to 50 µM; at GCN2 [2] it was less than 300 nM. In the case of `CN1CCC(n2cc(Nc3ncc4nnn(-c5ccc6cccnc6c5)c4n3)cn2)CC1` [Compound A73, [1-(1-methyl-piperidin-4-yl)-1H-pyrazol-4-yl]-(3-quinolin-7-yl-3H-[1,2,3]triazolo[4,5-d]pyrimidin-5-yl)-amine], the figures for the IC50 on GCN2 [1] and on GCN2 [2] were 3 to 50 µM and less than 300 nM, respectively. In the case of `COc1ccc(-n2nnc3cnc(Nc4cnn(C5COC5)c4)nc32)cc1` [Compound A23, 3-(4-methoxyphenyl)-N-[1-(oxetan-3-yl)pyrazol-4-yl]triazolo[4,5-d]pyrimidin-5-amine], the results for the IC50 at GCN2 [1] and at GCN2 [2] were 0.3 to 3 µM and less than 300 nM, respectively. With `Fc1cccc(-n2nnc3cnc(Nc4cnn(C5CCOCC5)c4)nc32)c1` [Compound A122, [3-(3-fluoro-phenyl)-3H-[1,2,3]triazolo[4,5-d]pyrimidin-5-yl]-[1-(tetrahydro-pyran-4-yl)-1H-pyrazol-4-yl]-amine], the IC50 is 0.3 to 3 µM at GCN2 [1] and less than 300 nM on GCN2 [2].

On to `Fc1cc(-n2nnc3cnc(Nc4cnn(C5CCOCC5)c4)nc32)ccc1Cl` [Compound A81, [3-(4-chloro-3-fluoro-phenyl)-3H-[1,2,3]triazolo[4,5-d]pyrimidin-5-yl]-[1-(tetrahydro-pyran-4-yl)-1H-pyrazol-4-yl]-amine], for which the IC50 is 0.3 to 3 µM on GCN2 [1] and less than 300 nM against GCN2 [2]. `CCCCOc1ccc(-n2nnc3cnc(Nc4cnn(CC)c4)nc32)cn1` [Compound A57, [3-(6-butoxy-pyridin-3-yl)-3H-[1,2,3]triazolo[4,5-d]-pyrimidin-5-yl]-(1-ethyl-1H-pyrazol-4-yl)-amine] yielded an IC50 at GCN2 [2] of 300 to 3000 nM. Take `CN1CCC(n2cc(Nc3ncc4nnn(-c5ccc(Cl)cc5)c4n3)cn2)CC1` [Compound A153, [3-(4-chloro-phenyl)-3H-[1,2,3]triazolo[4,5-d]pyrimidin-5-yl]-[1-(1-methyl-piperidin-4-yl)-1H-pyrazol-4-yl]-amine]: at GCN2 [2], the IC50 was less than 300 nM.

`CN1CCC(n2cc(Nc3ncc4nnn(-c5ccc(F)cc5C#N)c4n3)cn2)CC1` [Compound A74, 5-fluoro-2-{5-[1-(1-methyl-piperidin-4-yl)-1H-pyrazol-4-ylamino]-[1,2,3]triazolo[4,5-d]pyrimidin-3-yl}-benzonitrile] yielded an IC50 on GCN2 [2] of 300 to 3000 nM. Same read-out and setting: under `COC(=O)c1ccc(-n2nnc3cnc(Nc4cnn(C5CCOCC5)c4)nc32)cc1` [Compound A113, 4-{5-[1-(tetrahydro-pyran-4-yl)-1H-pyrazol-4-ylamino]-[1,2,3]triazolo[4,5-d]pyrimidin-3-yl}-benzoic acid methyl ester] stands less than 300 nM; under `COc1ccc(-n2nnc3cnc(Nc4cnn(Cc5ccccc5)c4)nc32)cc1` [Compound A10, (1-benzyl-1H-pyrazol-4-yl)-[3-(4-methoxy-phenyl)-3H-[1,2,3]triazolo[4,5-d]pyrimidin-5-yl]-amine], 3000 to 50000 nM. On the same count and under the same terms, the figure for `CCOc1ccc(-n2nnc3cnc(Nc4cnn(-c5ccccc5)c4)nc32)cc1` [Compound A64, [3-(4-ethoxy-phenyl)-3H-[1,2,3]triazolo[4,5-d]pyrimidin-5-yl]-(1-phenyl-1H-pyrazol-4-yl)-amine] is less than 300 nM; for `COc1ccc(-n2nnc3cnc(Nc4ccn(C)n4)nc32)cc1` [Compound A2, [3-(4-methoxy-phenyl)-3H-[1,2,3]triazolo[4,5-d]pyrimidin-5-yl]-(1-methyl-1H-pyrazol-3-yl)-amine] it is 3000 to 50000 nM. Take `O=S(=O)(c1ccc(-n2nnc3cnc(Nc4cnn(CCn5cccn5)c4)nc32)cc1)N1CCCC1` [Compound A133, [1-(2-pyrazol-1-yl-ethyl)-1H-pyrazol-4-yl]-{3-[4-(pyrrolidine-1-sulfonyl)-phenyl]-3H-[1,2,3]triazolo[4,5-d]-pyrimidin-5-yl}-amine]: the IC50 against GCN2 [2] was less than 300 nM.

On to `COc1ccc(-n2nnc3cnc(Nc4cnn([C@H]5CC[C@H](O)CC5)c4)nc32)cn1` [Compound A109, 4-{4-[3-(6-methoxy-pyridin-3-yl)-3H-[1,2,3]triazolo[4,5-d]pyrimidin-5-ylamino]-pyrazol-1-yl}-cyclohexanol], for which, at GCN2 [2], the IC50 is 300 to 3000 nM. On GCN2 [2], `COc1ccc(-n2nnc3cnc(Nc4cnn(C)c4)nc32)cc1` [Compound A18, [3-(4-methoxy-phenyl)-3H-[1,2,3]triazolo[4,5-d]pyrimidin-5-yl]-(1-methyl-1H-pyrazol-4-yl)-amine] had an IC50 of less than 300 nM. `c1cnc2cc(-n3nnc4cnc(Nc5cnn(C6CCOCC6)c5)nc43)ccc2n1` [Compound A94, (3-quinoxalin-6-yl-3H-[1,2,3]triazolo[4,5-d]pyrimidin-5-yl)-[1-(tetrahydro-pyran-4-yl)-1H-pyrazol-4-yl]-amine] had an IC50 against GCN2 [2] of less than 300 nM. As to `O=C1COCCN1n1cc(Nc2ncc3nnn(-c4ccc5cccnc5c4)c3n2)cn1` [Compound A145, 4-[4-(3-quinolin-7-yl-3H-[1,2,3]triazolo[4,5-d]pyrimidin-5-ylamino)-pyrazol-1-yl]-morpholin-3-one], the IC50 against GCN2 [2] lay in the range of 300 to 3000 nM. On the same count and under the same terms, under `c1cnc2cc(-n3nnc4cnc(Nc5cnn(CCn6cccn6)c5)nc43)ccc2c1` [Compound A134, [1-(2-pyrazol-1-yl-ethyl)-1H-pyrazol-4-yl]-(3-quinolin-7-yl-3H-[1,2,3]triazolo[4,5-d]pyrimidin-5-yl)-amine] stands 300 to 3000 nM. Regarding `Nc1ccc(-n2nnc3cnc(Nc4cnn(C[C@@H]5C[C@H]5CO)c4)nc32)cn1` (relative stereo) [Compound A60, ((trans)-2-{4-[3-(6-amino-pyridin-3-yl)-3H-[1,2,3]triazolo[4,5-d]pyrimidin-5-ylamino]-pyrazol-1-ylmethyl}-cyclopropyl)-methanol], on GCN2 [2], the IC50 was 300 to 3000 nM.

The molecule `CN1CCC(n2cc(Nc3ncc4nnn(-c5ccc(S(=O)(=O)N6CCCC6)cc5)c4n3)cn2)CC1` [Compound A136, [1-(1-methyl-piperidin-4-yl)-1H-pyrazol-4-yl]-{3-[4-(pyrrolidine-1-sulfonyl)-phenyl]-3H-[1,2,3]triazolo[4,5-d]pyrimidin-5-yl}-amine] gave an IC50 against GCN2 [2] of 300 to 3000 nM.
